According to patent US20150080475A1, “Memantine Protects Inflammation-Related Degeneration of Dopamine Neurons Through Inhibition of Over-Activated Microglia and Release of Neurotrophic Factors From Astroglia” (priority 2009, published 2015):

Legend:
GDNF [1] = test: RT-PCR of GDNF mRNA in astroglial cultures; format: cell-based, rat; settings: memantine 10 μM, time-dependent, 0 min to 24 h
Method: (§1) GDNF mediated memantine-induced neurotrophic effects. Rat primary astroglia were exposed to 10 μM memantine for various time points ranging from 0 minute to 24 h. (FIG. 5A) Total RNA was extracted. […] (FIG. 5B) The ratio of densitometry values of GDNF and β-actin was analyzed and normalized to 0 min value. (FIG. 5C) Total protein of astroglial cells was extracted. Western blot analyses were performed with the antibody to GDNF. GAPDH was used as loading control. (FIG. 5D) The ratio of densitometry values of GDNF and GAPDH was analyzed and normalized to 0 min value. Values were expressed as mean±S.E.M. of three independent experiments. *p<0.05, **p<0.01, ***p<0.001, Bonferroni t-test vs 0 min for FIG. 5B and FIG. 5D; (FIG. 5E) Neuron-glia cultures were treated with either control goat IgG (isotype Ab), or goat anti-GDNF, combined with memantine (10 μM) treatment. DA uptake capacity was measured 7 days later. Results were expressed as a percentage of the vehicle-treated control cultures and represented mean±S.E.M. of three independent experiments performed in triplicate. *p<0.05, **p<0.01, ***p<0.001, Bonferroni's test vs control; #p<0.05, Bonferroni t-test vs memantine treated cultures.
Mixed-glia cultures were first prepared from brains of 1-day-old Fisher 344 rat pups, as described previously. […]

GDNF [2] = test: Western blot of GDNF protein in astroglial cells; format: cell-based, rat; settings: memantine 10 μM
Method: as §1
Mixed-glia cultures were first prepared from brains of 1-day-old Fisher 344 rat pups, as described previously. Briefly, mechanically dissociated brain cells (5×10^7) were seeded onto 150-cm^2 culture flasks in Dulbecco's modified Eagle's medium containing 10% heat-inactivated FBS, 2 mM L-glutamine, 1 mM sodium pyruvate, 100 μM non-essential amino acids, 50 U/ml penicillin and 50 μg/ml streptomycin. The cultures were maintained at 37° C. in a humidified atmosphere of 5% CO2 and 95% air, and medium was replenished 4 days after the initial seeding. Upon reaching confluence (usually 12-14 days later), microglia were detached from astrocytes by shaking the flasks at a speed of 180 r.p.m. for 5 h. Astrocytes were then detached with trypsin-ethylenediaminetetraacetic acid (EDTA) and seeded in the same culture medium. […]

microglia = test: OX-42 immunostaining of LPS-activated microglia in neuron-glia cultures; format: cell-based; settings: MMT 3 μM pretreated 30 min, twelve hours after LPS
Method: DA neurons were recognized with the polyclonal antibody against tyrosine hydroxylase (TH) and microglia was detected with the OX-42 antibody against CR3 receptor. Briefly, cells were fixed for 20 min at room temperature in 3.7% formaldehyde diluted in phosphate-buffered saline (PBS). After washing twice with PBS, the cultures were treated with 1% hydrogen peroxide for 10 min. […] To quantify cell numbers, nine representative areas per well in the 24-well plate were counted under the microscope at 100× magnification by two individuals. […]
To provide evidence of anti-inflammatory effect of MMT, the degree of inhibition of LPS-induced activation of microglia was determined by 1) morphological observation after immunostaining of microglia marker (OX-42) and 2) release of pro-inflammatory factors from activated microglia, such as extracelloualr superoxide radicals, intracellular reactive oxygen species (iROS), nitric oxide (NO), PGE2. […]

nitric oxide = test: Nitrite assay (Griess reagent) after LPS; format: cell-based; settings: 24 and 48 h after LPS stimulation
Method: As an indicator of nitric oxide production, the amount of nitrite accumulated in culture supernatant was determined with a colorimetric assay using Griess reagent [1% sulfanilamide, 2.5% H3PO4, 0.1% N-(1-naphthyl)ethylenediamine dihydrochloride]. Briefly, 50 μL of Griess reagent and 50 μL of culture supernatant were incubated in the dark at room temperature for 10 min. After incubation, the absorbance at 540 nm was determined with the Spectra Max Plus microplate spectrophotometer. The sample nitrite concentration was determined from a sodium nitrite standard curve.
(§2) Neuron-glia cultures were pretreated for 30 min with MMT (3 μM) or vehicle before LPS stimulation. […] Production of superoxide (30 min after LPS) and iROS (2 h after LPS) was decreased by MMT treatment (FIGS. 6A and 6B). […] The production of PGE2 in cultures pretreated with 3 and 10 μM MMT decreased by 23% and 27% respectively (FIG. 6E).

PGE2 = PGE2 ELISA after LPS; format: cell-based
Method: The production of TNF-α was measured with a commercial ELISA kit from R&D Systems. The PGE2 release was measured with a commercial ELISA kit from Cayman Chemical Company.
as §2

Question: Which “GDNF mRNA levels” value (GDNF [1]) does the source give for CC12CC3CC(C)(C1)CC(N)(C3)C2.Cl [MMT, 1-amino-3,5-dimethyladamantane hydrochloride] here?
Answer: Its value is “significant main effects”.

Question: What about the “GDNF protein level vs vehicle-treated control” value (GDNF [2]; 6 h) of the same molecule?
Answer: Its value is “significantly increased level”.

Question: What about the “GDNF protein level vs vehicle-treated control” value (GDNF [2]; 12 h) of the same molecule?
Answer: The value was “peaked”.

Question: And the “GDNF protein level vs vehicle-treated control” value (GDNF [2]; 24 h)?
Answer: Its value is “still expressed”.

Question: What about the “activation of OX-42 stained microglia vs LPS-treated cultures” value (microglia) of the same molecule?
Answer: The value was “less activated”.

Question: What about the “release of NO (measured as nitrite)” value (nitric oxide) of the same molecule?
Answer: Its value is “reduced”.

Question: And the “decrease of PGE2 production” value (PGE2; pretreated with 3 μM MMT)?
Answer: Its value is 23%.

Question: What about the “decrease of PGE2 production” value (PGE2; pretreated with 10 μM MMT) of the same molecule?
Answer: The value was 27%.
